The source made the active and inactive calls. No cut-off for these calls is given here.
Columns and labels:
Rattus norvegicus [1] = assay: Induction of turning behavior in rat at 50 to 200 umol/kg, ip; assay type: functional, organism-based
Rattus norvegicus [2] = assay: Induction of stereotyped gnawling behavior in rat assessed as time duration of behavior administered by gastric tube; assay type: functional, organism-based
Rattus norvegicus [3] = assay: Induction of stereotyped gnawling behavior in rat assessed as time duration at 200 umol/kg, ip relative to control; assay type: functional
Rattus norvegicus [4] = assay: Induction of stereotyped gnawling behavior in ip dosed rat assessed as time duration; assay type: functional, organism-based
[5] = Toxicity in ip dosed rat; assay type: organism-based; settings: in vivo
Striatum [6] = assay: Induction of cAMP production in rat corpus striatum at 10 to 100 uM; assay type: functional, tissue-based
Rattus norvegicus [7] = assay: Induction of stereotyped gnawling behavior in rat assessed as time duration at 100 umol/kg, ip relative to control; assay type: functional
Rattus norvegicus [8] = assay: Induction of stereotyped gnawling behavior in rat assessed as time duration at 30 umol/kg, ip relative to control; assay type: functional
Rattus norvegicus [9] = assay: Induction of stereotyped gnawling behavior in ip dosed rat assessed as latency to peak score of stereotyped behavior; assay type: functional
Liver = assay: Prodrug conversion in rat liver at 0.4 mM after 60 mins; assay type: ADME, tissue-based; settings: 1 h, 400 µM
Striatum [10] = assay: Induction of cAMP production in rat corpus striatum at 10 to 100 uM in presence of rat liver; assay type: functional, tissue-based
Brain = assay: Drug uptake in ip dosed mouse brain; assay type: ADME, organism-based; settings: in vivo

Row | SMILES | Activity (Rattus norvegicus [1]) | Activity (Rattus norvegicus [2]) | Time (Rattus norvegicus [3]) | Activity (Rattus norvegicus [4]) | MTD [5] | Activity (Striatum [6]) | Time (Rattus norvegicus [7]) | Time (Rattus norvegicus [8]) | Time (Rattus norvegicus [9]) | Drug metabolism (Liver) | Activity (Striatum [10]) | Drug uptake (Brain)
1 | CN1CCc2cccc3c2[C@H]1Cc1ccc(OC(=O)C(C)(C)C)c(OC(=O)C(C)(C)C)c1-3.Cl | Active | inactive | 7.8 h | Dose-dependent effect | < 300 mg/kg | inactive | 5.1 h | 3.1 h |  |  |  | 
2 | CN1CCc2cccc3c2[C@H]1Cc1ccc(O)c(O)c1-3.CN1CCc2cccc3c2[C@H]1Cc1ccc(O)c(O)c1-3.Cl.Cl.O [APOMORPHINE HYDROCHLORIDE] | Active | inactive | 2.6 h |  | < 300 mg/kg |  | 1.9 h | 1.6 h | 26 min |  |  | 
3 | CC(C)C(=O)Oc1ccc2c(c1OC(=O)C(C)C)-c1cccc3c1[C@@H](C2)N(C)CC3.Cl | Active | inactive | 4.9 h | Dose-dependent effect | < 300 mg/kg | inactive | 3.3 h | 2.5 h |  | 55% | Active | Active
4 | CC(=O)Oc1ccc2c(c1OC(C)=O)-c1cccc3c1[C@@H](C2)N(C)CC3 | Active | inactive | 2.7 h | Active | < 300 mg/kg | inactive | 2.3 h | 2.1 h |  |  |  | 
5 | CN1CCc2cccc3c2[C@H]1Cc1ccc(OC(=O)c2ccccc2)c(OC(=O)c2ccccc2)c1-3 | Active | inactive | 10.8 h | Dose-dependent effect | < 300 mg/kg | inactive | 6.3 h | 3.8 h | 83 min | 9% |  | Active
6 | CCC(=O)Oc1ccc2c(c1OC(=O)CC)-c1cccc3c1[C@@H](C2)N(C)CC3.Cl | Active | inactive | 2.9 h | inactive | < 300 mg/kg | inactive | 1.9 h | 1.6 h | 41 min |  |  | 
